# Assay results: patent US12390465B2, “Coumarin derivative for therapy or prophylaxis of a cell proliferative disorder” (The Institute of Cancer Research: Royal Cancer Hospital, priority 2017, dated 2025)
# What was measured:
# Format in all cases: in vivo, human
# [1] = system: KRAS mutant and NRAS mutant IgG lambda multiple myeloma; test: Example 1: oral treatment of a multiple myeloma patient, 3 weeks on/1 week off; conditions: for FLCk: pre 325 mg/L, 4 mg twice weekly
# Description: A potassium salt of compound (I) (the potassium salt being also referred to as the “IMP” in this example) was orally administered to a patient with KRAS mutant and NRAS mutant IgG lambda multiple myeloma at a dose of 4 mg twice weekly (Tuesday and Friday) in 4-week cycles consisting of 3 weeks of treatment followed by 1 week of rest (3 weeks on/1 week off). Dexamethasone was not used in combination with the IMP.
# The patient started dosing on 29 Nov., 2016. […] initial and ongoing toxicity was intermittent Grade 1 diarrhoea that may be related to the IMP.
# The patient had previously been treated with: • Autologous stem cell transplant • Proteasome inhibitor • Immunomodulatory drug • Cyclophosphamide+Dexamethasone+Thalidomide • Melphalan • Lenalidomide • Cyclophosphamide+Bortezomib • Dexamethasone • Spine T3-T12, 5 fractions (radiotherapy)
# [2] = system: HRAS mutant apocrine adenocarcinoma of the scalp; test: Example 3: oral treatment of an apocrine adenocarcinoma patient following the dosing guidance; conditions: for reduction in tumor size: CT scan
# Description: A potassium salt of compound (I) (the potassium salt being also referred to as the “IMP” in this example) was orally administered to a patient with HRAS mutant apocrine adenocarcinoma of the scalp. Apocrine adenocarcinoma of the scalp is a cutaneous sweat gland carcinoma. The patient was diagnosed in 2014, and had radiotherapy and surgery twice before treatment with the IMP.
# Treatment of the patient by the IMP was started on 8th Jan., 2018 at a dose of 4 mg twice weekly in 4-week cycles. In Cycle 1 Week 3, the patient had Grade 2 acneiform rash and Grade 2 diarrhoea and thus the dosage was reduced to a 3 weeks on/1 week off schedule with 4 mg twice weekly. The grade of acneiform rash was one (1) in Cycle 2 Day 1, […] in Cycle 2 Day 22, and two (2) in Cycle 3 Day 1. Thus, the dose at Cycle 3 Day 1 was not reduced to 3.2 mg and was determined as 4 mg.
# Treatment of the patient by the IMP is ongoing as of 30th Apr., 2018 (Cycle 5 Day 1) without any Grade 2 or higher rash or diarrhoea being observed.
# [3] = system: KRAS mutant non-small-cell lung cancer; test: Example 2: oral treatment of a non-small-cell lung cancer patient with stepwise dose reduction; conditions: for best response, reduction in target lesions by RECIST 1.1: CT scan
# Description: A potassium salt of compound (I) (the potassium salt being also referred to as the “IMP” in this example) was orally administered to a patient with KRAS mutant non-small-cell lung cancer.
# The patient started treatment on 1 Sep., 2014. The IMP was first administered at a dose of 4 mg twice weekly in 4-week cycles consisting of 4 weeks of treatment (4 mg 4 wk on). In Cycle 9, due to Grade 3 maculopapular rash, the dosage was reduced to 3.2 mg twice weekly in 4-week cycles (3.2 mg 4 wk on). In Cycle 22, due to Grade 3 facial rash, the dosage was reduced again to a 3 weeks on/1 week off schedule with 3.2 mg twice weekly (3.2 mg 3 wk on/1 wk off).
# The horizontal axis (X-axis) represents the treatment cycle number and the vertical axis (Y-axis) represents the rate of change of tumor size from baseline. The tumor size was measured by CT scan. The best responses of the dosing schedules 4 mg 4 wk on, 3.2 mg 4 wk on, and 3.2 mg 3 wk on/1 wk off were 58% reduction, 61% reduction, and 68% reduction in target lesions by RECIST 1.1, respectively. Treatment of the patient by the IMP is being continued as of 18 Apr., 2018 (at Cycle 48, equivalent to 3.6 years) without any Grade 2 or higher rash being observed.
# The patient had previously been treated with: • Carboplatin/Pemetrexed • Pemetrexed • Docetaxel • Pleurodesis (October 2012) (surgery)
# solid cancers = test: Earlier dosing regimen (twice weekly, 4 mg per administration) in patients; conditions: some cases
# Description: In regard to the usage and dosage of compound (I) or a salt thereof, a potassium salt of compound (I) is known to be administered to patients with solid cancers such as non-small-cell lung cancer, ovarian cancer, endometrial cancer, and colorectal cancer twice weekly at a dose of 4 mg per administration (see non patent document 1).
# [4] = 4 mg twice weekly in 4-week cycles, Cycle 1 Week 3
smiles,measurement,setting,value
CNS(=O)(=O)[N-]c1nccc(Cc2c(C)c3ccc(Oc4ncccn4)cc3oc2=O)c1F.[K+] [IMP],rash related to the IMP (grade),"[1]; 4 mg twice weekly oral, no dexamethasone",2 Grade
same,diarrhoea (toxicity grade),"[1]; 4 mg twice weekly oral, no dexamethasone, initial and ongoing, intermittent, may be related to the IMP",1 Grade
same,response as per IMWG criteria,"[1]; 4 mg twice weekly oral, ongoing",partial response
same,FLCk,[1]; after 1 cycle,161 mg/L
same,FLCk,[1]; after 2 cycles,264 mg/L
same,acneiform rash (grade),[2]; [4],2 Grade
same,diarrhoea (grade),[2]; [4],2 Grade
same,response by RECIST 1.1 (tumor size by CT scan),"[2]; 4 mg twice weekly, 3 weeks on/1 week off",partial response
same,acneiform rash (grade),"[2]; 4 mg twice weekly, 3 weeks on/1 week off, Cycle 2 Day 1",1 Grade
same,acneiform rash (grade),"[2]; 4 mg twice weekly, 3 weeks on/1 week off, Cycle 2 Day 22",3 Grade
same,acneiform rash (grade),"[2]; 4 mg twice weekly, 3 weeks on/1 week off, Cycle 3 Day 1",2 Grade
same,reduction in tumor size,[2]; Cycle 2 Day 22,54%
same,reduction in tumor size,[2]; Cycle 4 Day 15,58%
same,diarrhoea observed (grade) during ongoing treatment,[2]; as of Cycle 5 Day 1,< 2 Grade
same,rash observed (grade) during ongoing treatment,[2]; as of Cycle 5 Day 1,< 2 Grade
same,rash (grade) after the reductions,"[3]; 3.2 mg twice weekly, 3 wk on/1 wk off",1 Grade
same,facial rash (grade),"[3]; 3.2 mg twice weekly, 4 wk on, Cycle 22",3 Grade
same,maculopapular rash (grade),"[3]; 4 mg twice weekly, 4 wk on, Cycle 9",3 Grade
same,rash observed (grade) during continued treatment,[3]; as of Cycle 48 (3.6 years),< 2 Grade
same,response by RECIST 1.1,"[3]; maintained at Cycle 40, 3.2 mg 3 wk on/1 wk off",partial response
same,"best response, reduction in target lesions by RECIST 1.1",[3]; schedule 3.2 mg 3 wk on/1 wk off,68%
same,"best response, reduction in target lesions by RECIST 1.1",[3]; schedule 3.2 mg 4 wk on,61%
same,"best response, reduction in target lesions by RECIST 1.1",[3]; schedule 4 mg 4 wk on,58%
CNS(=O)(=O)Nc1nccc(Cc2c(C)c3ccc(Oc4ncccn4)cc3oc2=O)c1F [compound (I)],adverse event leading to unplanned dose interruption and/or dose reduction,solid cancers,worsening of skin rash
